Experimental data published in US4277605A, “Chemical compounds” (priority 1980, dated 1981).

How the values were obtained:
[1] = Antidiarrheal activity, castor oil test in rats (modified Niemegeers); format: in vivo, male Sprague-Dawley rats; details: for ED50: Rattus norvegicus; for separation between antidiarrheal and analgetic activity (in words): from RAS; for RAS (Relative Antidiarrheal Specificity): Analgetic ED50 divided by the Antidiarrheal ED50, oral; for Antidiarrheal Activity ED50 (95% Confidence Limits) Castor Oil Test in Rats: 60 min
Method: A modification of the castor oil test described by Niemegeers [Arzneim.-Forsch., 22, 516-518 (1972)] was used. Male Sprague-Dawley rats (180-220 g) were dosed orally (in one case, subcutaneously) with a test compound or vehicle 1 hour before receiving a standard dose of castor oil orally (3 ml/rat). The rats were individually caged and examined for the presence of diarrhea hourly. Control animals had 100% incidence of diarrhea 1 hour after administering the castor oil. The percentage of rats protected from diarrhea was calculated 1 hour after the castor oil. Six rats were used per dose level.
(§1) Morphine sulfate was dissolved in distilled water.

[2] = Analgetic activity, radiant heat method (Rat Tail Flick Test); format: in vivo, male Sprague-Dawley rats; details: Table I, oral, rats; for ED50: Rattus norvegicus, read-out: Analgetic Activity Rat Tail Flick ED50 (95% Confidence Limits)
Method: Analgetic activity was determined by the radiant heat method (Rat Tail Flick Test) of D'Amour and Smith [J. Pharm. Exp. Ther., 72, 74-79 (1941)] in Sprague-Dawley male rats (140-180 g). An all or none response was used to determine the dose of test material which produced at least a 100 percent increase in predose response time in 50 percent of the test animals (ED50). The ED50 values were based on at least 3 doses per drug (6 rats per dose level) and calculated by means of the Finney Dose Response procedure [Finney, D. J., Probit Analysis, University Press, Cambridge, England (1971)].
as §1

[3] = Suppression of body weight loss due to abstinence in withdrawn morphine-dependent rats; details: oral administration, FIG. 1
[4] = Suppression of withdrawal jumping due to abstinence in withdrawn morphine-dependent mice
[5] = high oral doses (40-60 mg); cited from earlier work
[6] = even in its salt forms; cited from earlier work
[7] = Table II, d,l-Ia(1) subcutaneous, Ib(1) isomers oral
[8] = Table I, oral, rats, 1 hour after castor oil, read-out: Antidiarrheal Activity Castor Oil Test in Rats ED50 (95% Confidence Limits)
[9] = Table II, separate test, oral administration

CN1CC[C@]23CCC(=O)C[C@@H]2[C@H]1Cc1ccc(O)cc13 (relative stereo) [d,l-Ia(1), d,l-3-Hydroxy-7-oxo-N-methylisomorphinan]
ED50 ([1]; sc, 1 h, Table II, separate test, subcutaneous administration, read-out: Antidiarrheal Activity ED50 (95% Confidence Limits) Castor Oil Test in Rats): 0.56 mg/kg | antidiarrheal potency (in words) [1, 7]: potent antidiarrheal agent

CN1CC[C@]23CCC(=O)C[C@H]2[C@H]1Cc1ccc(O)cc13 (relative stereo) [d,l-Ib(1), d,l-3-Hydroxy-7-oxo-N-methylmorphinan]
ED50 ([1]; 1 h, Table II, separate test, oral administration, read-out: Antidiarrheal Activity ED50 (95% Confidence Limits) Castor Oil Test in Rats): 1.08 mg/kg | ED50 [1, 8]: 1.41 mg/kg | separation between antidiarrheal and analgetic activity (in words) ([1]; oral, rats): excellent separation between antidiarrheal and analgetic activity | ED50 [2]: > 150 mg/kg | prevention of body weight loss due to morphine withdrawal / ability to substitute for morphine (in words) [3]: no significant prevention of body weight loss | Percent Suppression of Withdrawal Jumping ([4]; 9 mg/kg po): 0% | Percent Suppression of Withdrawal Jumping ([4]; 27 mg/kg po): 0% | suppressant action on withdrawal jumping (in words) ([4]; oral, doses as high as 27 mg/kg): No suppressant action

CCOC(=O)C1(c2ccccc2)CCN(CCC(C#N)(c2ccccc2)c2ccccc2)CC1 [Diphenoxylate]
RAS (Relative Antidiarrheal Specificity) ([1]; rats): 102 | ED50 [1, 8]: 0.11 mg/kg | antidiarrheal potency (in words) ([1]; Table I, oral, rats): most potent antidiarrheal drug studied | improvement of RAS over morphine ([1]; oral, rats): tenfold | ED50 [2]: 11.2 mg/kg | typical opioid effects [5]: euphoria, suppression or morphine abstinence, and a morphine-like physical dependence after chronic administration | solubility (in words) [6]: highly insoluble | suppression of withdrawal jumping (in words) ([4]; oral dose of 9 mg/kg): suppressed withdrawal jumping

CN1CC[C@]23c4c5ccc(O)c4O[C@H]2[C@@H](O)C=C[C@H]3[C@H]1C5 [Morphine SO4]
RAS (Relative Antidiarrheal Specificity) ([1]; rats): 14 | Antidiarrheal Activity Castor Oil Test in Rats ED50 (95% Confidence Limits) ([1]; Table I, oral, rats, 1 hour after castor oil): 2.2 (1.5-3.1) mg/kg | separation between antidiarrheal and analgetic activity (in words) ([1]; oral, rats): poor separation between antidiarrheal and analgetic activity | Analgetic Activity Rat Tail Flick ED50 (95% Confidence Limits) [2]: 30.5 (26.3-35.0) mg/kg | ED50, Suppression of Withdrawal Jumping ([4]; sc, limits (0.9-3.1) printed on next line): 1.8

COc1ccc2c3c1O[C@H]1C(=O)CC[C@@]4(O)[C@@H](C2)N(C)CC[C@]314 [Oxycodone]
Percent Suppression of Withdrawal Jumping ([4]; 10 mg/kg po): 100%

CN1CC[C@]23CCC(=O)C[C@H]2[C@H]1Cc1ccc(O)cc13 [d-Ib(1), d-3-Hydroxy-N-methyl-7-oxomorphinan]
Antidiarrheal Activity ED50 (95% Confidence Limits) Castor Oil Test in Rats [1, 9]: < 1

CN1CC[C@]23CCC(=O)C[C@H]2[C@H]1Cc1ccc(O)cc13 [l-Ib(1), l-3-Hydroxy-N-methyl-7-oxomorphinan]
Antidiarrheal Activity ED50 (95% Confidence Limits) Castor Oil Test in Rats [1, 9]: 0.64 (0.46-0.86) | antidiarrheal potency (in words) [1, 7]: most potent isomer
